Laboratory results taken from patent US12286437B2, “Cardiac sarcomere inhibitors” (Cytokinetics, Inc., priority 2021, dated 2025).
Read-outs that look alike come from different tables or passages of the source.

How the values were obtained:
Format in all cases: in vitro ADME
CYP1A2 = biological target: T1, CYP1A2 (Homo sapiens, UniProt P05177); test: Time-dependent inhibition of CYP1A2 in human liver microsomes; conditions: for (% Activity NADPH T0)/(% Activity NADPH T30): fold change; for activity at 30 min, 25 µM / activity at 0 min, 25 µM / activity at 30 min, 50 µM / activity at 0 min, 50 µM: pooled human liver microsomes, human liver microsomes; for activity at 30 min, 25 µM / activity at 30 min, 50 µM: after 30 minutes incubation, read-out: % Activity NADPH T30; for activity at 0 min, 25 µM / activity at 0 min, 50 µM: time zero, read-out: % Activity NADPH T0
T1 construct: Pooled human microsomes and selective CYP probe substrates were used; from tissue; host or cells: pooled human liver microsomes
T1 sequence (P05177 1-516): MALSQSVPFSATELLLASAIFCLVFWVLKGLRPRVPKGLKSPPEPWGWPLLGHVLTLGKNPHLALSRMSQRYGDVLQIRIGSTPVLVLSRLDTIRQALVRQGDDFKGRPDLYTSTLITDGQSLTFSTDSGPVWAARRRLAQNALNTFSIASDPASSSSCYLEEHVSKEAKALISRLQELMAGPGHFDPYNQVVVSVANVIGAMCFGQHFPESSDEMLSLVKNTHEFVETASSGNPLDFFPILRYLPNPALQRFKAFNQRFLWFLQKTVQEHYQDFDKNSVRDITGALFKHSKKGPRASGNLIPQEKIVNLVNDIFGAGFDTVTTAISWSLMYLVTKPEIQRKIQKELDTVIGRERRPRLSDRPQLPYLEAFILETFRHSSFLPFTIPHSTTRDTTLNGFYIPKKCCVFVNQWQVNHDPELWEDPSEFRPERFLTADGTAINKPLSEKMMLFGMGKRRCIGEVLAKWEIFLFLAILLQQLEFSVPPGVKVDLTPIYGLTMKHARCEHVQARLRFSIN
Description: (§1) An assessment of the time-dependent Inhibitory Potential of the test compounds against Principal Human Cytochrome P450 Isozymes using Human Liver Microsomes was also carried out using standard methods (Grimm et al, Drug Metab. Dispos., July; 37(7):1355-70. doi: 10.1124/dmd.109.026716, 2009). Pooled human microsomes and selective CYP probe substrates were used for in vitro assessment of test compounds at 25 and 50 μM as time-dependent inhibitors of […] human hepatic cytochrome P450 isozymes (CYP1A2, 2B6, 2C9, 2C19, 2D6, and 3A4). LC-MS/MS was used to quantify metabolite formation. The inhibition of each P450 enzyme in human liver microsomes was measured as the percentage decrease in the activity of marker metabolite formation as measured by LC-MS/MS compared to non-inhibited controls (=100% activity) at time zero and after 30 minutes incubation. The occurrence of any time dependent inhibition was then expressed as the fold change in enzyme activity at time zero relative to the activity after 30 minutes incubation.

CYP2C8 = biological target: T2, CYP2C8 (Homo sapiens, UniProt P10632); test: Time-dependent inhibition of CYP2C8 in human liver microsomes; conditions: for (% Activity NADPH T0)/(% Activity NADPH T30): fold change; for activity at 30 min, 25 µM / activity at 0 min, 25 µM / activity at 30 min, 50 µM / activity at 0 min, 50 µM: pooled human liver microsomes, human liver microsomes; for activity at 30 min, 25 µM / activity at 30 min, 50 µM: after 30 minutes incubation, read-out: % Activity NADPH T30; for activity at 0 min, 25 µM / activity at 0 min, 50 µM: time zero, read-out: % Activity NADPH T0
T2 construct: Pooled human microsomes and selective CYP probe substrates were used; from tissue; host or cells: pooled human liver microsomes
T2 sequence (P10632 1-490): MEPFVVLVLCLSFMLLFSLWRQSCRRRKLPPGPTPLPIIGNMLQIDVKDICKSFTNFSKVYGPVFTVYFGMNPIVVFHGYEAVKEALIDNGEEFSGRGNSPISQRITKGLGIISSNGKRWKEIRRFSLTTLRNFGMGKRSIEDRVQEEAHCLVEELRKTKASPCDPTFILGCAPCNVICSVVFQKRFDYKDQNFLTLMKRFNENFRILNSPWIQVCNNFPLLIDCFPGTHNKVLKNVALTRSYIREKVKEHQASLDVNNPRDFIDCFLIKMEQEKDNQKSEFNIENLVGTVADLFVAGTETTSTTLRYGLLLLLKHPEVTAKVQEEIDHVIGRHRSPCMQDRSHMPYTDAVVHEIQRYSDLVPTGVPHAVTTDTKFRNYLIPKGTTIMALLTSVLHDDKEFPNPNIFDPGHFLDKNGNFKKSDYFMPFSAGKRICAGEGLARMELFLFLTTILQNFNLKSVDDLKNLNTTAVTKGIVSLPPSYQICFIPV
Description: as §1

CYP2B6 = biological target: T3, CYP2B6 (Homo sapiens, UniProt P20813); test: Time-dependent inhibition of CYP2B6 in human liver microsomes; conditions: for (% Activity NADPH T0)/(% Activity NADPH T30): fold change; for activity at 30 min, 25 µM / activity at 0 min, 25 µM / activity at 30 min, 50 µM / activity at 0 min, 50 µM: pooled human liver microsomes, human liver microsomes; for activity at 30 min, 25 µM / activity at 30 min, 50 µM: after 30 minutes incubation, read-out: % Activity NADPH T30; for activity at 0 min, 25 µM / activity at 0 min, 50 µM: time zero, read-out: % Activity NADPH T0
T3 construct: Pooled human microsomes and selective CYP probe substrates were used; from tissue; host or cells: pooled human liver microsomes
T3 sequence (P20813 1-491): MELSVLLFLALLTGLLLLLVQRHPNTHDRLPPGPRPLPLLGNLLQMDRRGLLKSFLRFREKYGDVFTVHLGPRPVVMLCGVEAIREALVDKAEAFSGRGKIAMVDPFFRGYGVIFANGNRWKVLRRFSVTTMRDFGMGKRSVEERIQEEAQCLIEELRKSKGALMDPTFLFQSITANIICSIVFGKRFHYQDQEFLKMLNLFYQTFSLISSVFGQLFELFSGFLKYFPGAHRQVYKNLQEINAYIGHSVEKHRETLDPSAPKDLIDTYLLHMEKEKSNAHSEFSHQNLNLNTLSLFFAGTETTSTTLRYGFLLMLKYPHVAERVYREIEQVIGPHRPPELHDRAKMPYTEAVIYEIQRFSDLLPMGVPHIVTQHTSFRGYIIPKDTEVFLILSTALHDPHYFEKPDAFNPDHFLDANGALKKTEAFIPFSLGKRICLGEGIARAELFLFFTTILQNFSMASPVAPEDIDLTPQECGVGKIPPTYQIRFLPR
Description: as §1

CYP3A4 = biological target: T4, CYP3A4 (Homo sapiens, UniProt P08684); test: Time-dependent inhibition of CYP3A4 in human liver microsomes (testosterone and midazolam probes); conditions: for (% Activity NADPH T0)/(% Activity NADPH T30): fold change; for activity at 30 min, 25 µM / activity at 30 min, 50 µM: human, after 30 minutes incubation, read-out: % Activity NADPH T30; for activity at 30 min, 25 µM / activity at 30 min, 50 µM / activity at 0 min, 25 µM / activity at 0 min, 50 µM: pooled human liver microsomes; for activity at 0 min, 25 µM / activity at 0 min, 50 µM: human liver microsomes, time zero, read-out: % Activity NADPH T0
T4 construct: Pooled human microsomes and selective CYP probe substrates were used; from tissue; host or cells: pooled human liver microsomes
T4 sequence (P08684 whole entry): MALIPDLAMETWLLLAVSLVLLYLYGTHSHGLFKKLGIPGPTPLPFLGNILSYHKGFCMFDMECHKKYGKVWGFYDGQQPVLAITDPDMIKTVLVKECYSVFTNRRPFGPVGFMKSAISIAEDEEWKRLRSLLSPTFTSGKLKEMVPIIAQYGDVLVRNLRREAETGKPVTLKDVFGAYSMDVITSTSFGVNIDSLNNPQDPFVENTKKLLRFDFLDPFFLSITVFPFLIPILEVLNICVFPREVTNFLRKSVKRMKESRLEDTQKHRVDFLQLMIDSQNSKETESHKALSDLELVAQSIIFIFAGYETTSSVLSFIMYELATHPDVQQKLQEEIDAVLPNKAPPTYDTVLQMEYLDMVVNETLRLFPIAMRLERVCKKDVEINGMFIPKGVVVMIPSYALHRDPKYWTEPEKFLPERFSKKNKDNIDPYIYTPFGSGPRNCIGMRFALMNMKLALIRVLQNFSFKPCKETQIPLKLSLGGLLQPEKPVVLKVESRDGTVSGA
Summary of the method: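 Pooled human liver microsomes with selective CYP probe substrates were exposed to compounds at 25 and 50 μM. Marker metabolite formation was quantified by LC-MS/MS as % of uninhibited control at time zero and after 30 min incubation. Time-dependent inhibition is expressed as the fold change in activity between time zero and 30 min.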

CYP2C19 = biological target: T5, CYP2C19 (Homo sapiens, UniProt P33261); test: Time-dependent inhibition of CYP2C19 in human liver microsomes; conditions: for (% Activity NADPH T0)/(% Activity NADPH T30): fold change; for activity at 30 min, 25 µM / activity at 0 min, 25 µM / activity at 30 min, 50 µM / activity at 0 min, 50 µM: pooled human liver microsomes, human liver microsomes; for activity at 30 min, 25 µM / activity at 30 min, 50 µM: after 30 minutes incubation, read-out: % Activity NADPH T30; for activity at 0 min, 25 µM / activity at 0 min, 50 µM: time zero, read-out: % Activity NADPH T0
T5 construct: Pooled human microsomes and selective CYP probe substrates were used; from tissue; host or cells: pooled human liver microsomes
T5 sequence (P33261 whole entry): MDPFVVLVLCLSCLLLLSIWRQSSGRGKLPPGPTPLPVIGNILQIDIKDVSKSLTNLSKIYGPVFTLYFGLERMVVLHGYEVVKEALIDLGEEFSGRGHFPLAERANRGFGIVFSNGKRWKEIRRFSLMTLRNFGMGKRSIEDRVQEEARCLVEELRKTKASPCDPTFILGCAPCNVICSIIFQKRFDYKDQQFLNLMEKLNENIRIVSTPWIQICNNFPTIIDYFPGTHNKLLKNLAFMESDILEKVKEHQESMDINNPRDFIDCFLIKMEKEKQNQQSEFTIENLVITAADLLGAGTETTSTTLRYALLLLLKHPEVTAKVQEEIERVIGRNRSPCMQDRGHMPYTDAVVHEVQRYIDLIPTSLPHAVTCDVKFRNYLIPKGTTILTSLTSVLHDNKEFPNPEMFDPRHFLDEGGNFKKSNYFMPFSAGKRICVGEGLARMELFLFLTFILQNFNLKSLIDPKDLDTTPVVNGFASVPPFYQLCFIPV
Description: as §1

[1] = CYP3A4-M (midazolam probe substrate), 25 μM
[2] = CYP3A4-M (midazolam probe substrate), 50 μM
[3] = CYP3A4-T (testosterone probe substrate), 25 μM
[4] = CYP3A4-T (testosterone probe substrate), 50 μM

(% Activity NADPH T0)/(% Activity NADPH T30) (CYP1A2; CYP1A2, 25 μM)	(% Activity NADPH T0)/(% Activity NADPH T30) (CYP1A2; CYP1A2, 50 μM)	activity at 30 min, 25 µM (CYP1A2; CYP1A2, 25 μM) [%]	activity at 0 min, 25 µM (CYP1A2; CYP1A2, 25 μM) [%]	activity at 30 min, 50 µM (CYP1A2; CYP1A2, 50 μM) [%]	activity at 0 min, 50 µM (CYP1A2; CYP1A2, 50 μM) [%]	(% Activity NADPH T0)/(% Activity NADPH T30) (CYP2C8; CYP2C8, 25 μM)	(% Activity NADPH T0)/(% Activity NADPH T30) (CYP2C8; CYP2C8, 50 μM)	activity at 30 min, 25 µM (CYP2C8; CYP2C8, 25 μM) [%]	activity at 0 min, 25 µM (CYP2C8; CYP2C8, 25 μM) [%]	activity at 30 min, 50 µM (CYP2C8; CYP2C8, 50 μM) [%]	activity at 0 min, 50 µM (CYP2C8; CYP2C8, 50 μM) [%]	(% Activity NADPH T0)/(% Activity NADPH T30) (CYP2B6; CYP2B6, 25 μM)	(% Activity NADPH T0)/(% Activity NADPH T30) (CYP2B6; CYP2B6, 50 μM)	activity at 30 min, 25 µM (CYP2B6; CYP2B6, 25 μM) [%]	activity at 0 min, 25 µM (CYP2B6; CYP2B6, 25 μM) [%]	activity at 30 min, 50 µM (CYP2B6; CYP2B6, 50 μM) [%]	activity at 0 min, 50 µM (CYP2B6; CYP2B6, 50 μM) [%]	(% Activity NADPH T0)/(% Activity NADPH T30) (CYP3A4; [1])	(% Activity NADPH T0)/(% Activity NADPH T30) (CYP3A4; [2])	SMILES	also measured
0.9	1.0	99	85	90	92	0.7	1.3	100	65	76	100	0.8	0.9	103	80	83	76	1.8	1.2	C[C@H]1CC[C@H](N2CC(=O)N(Cc3ccc(Cl)cc3)C3(CN(C(N)=O)C3)C2=O)CC1 [Compound 18, 5-(4-chlorobenzyl)-8-((1r,4r)-4-methylcyclohexyl)-6,9-dioxo-2,5,8-triazaspiro[3.5]nonane-2-carboxamide]	(% Activity NADPH T0)/(% Activity NADPH T30) (CYP3A4; [3]): 1.2; (% Activity NADPH T0)/(% Activity NADPH T30) (CYP3A4; [4]): 1.1; activity at 30 min, 25 µM (CYP3A4; [1]): 71%; activity at 30 min, 50 µM (CYP3A4; [2]): 102%; activity at 30 min, 25 µM (CYP3A4; [3]): 85%; activity at 30 min, 50 µM (CYP3A4; [4]): 75%; activity at 0 min, 25 µM (CYP3A4; [1]): 125%; activity at 0 min, 50 µM (CYP3A4; [2]): 126%; activity at 0 min, 25 µM (CYP3A4; [3]): 100%; activity at 0 min, 50 µM (CYP3A4; [4]): 85%; (% Activity NADPH T0)/(% Activity NADPH T30) (CYP2C19; CYP2C19, 25 μM): 1.0; (% Activity NADPH T0)/(% Activity NADPH T30) (CYP2C19; CYP2C19, 50 μM): 1.1; activity at 30 min, 25 µM (CYP2C19; CYP2C19, 25 μM): 99%; activity at 0 min, 25 µM (CYP2C19; CYP2C19, 25 μM): 103%; activity at 30 min, 50 µM (CYP2C19; CYP2C19, 50 μM): 84%; activity at 0 min, 50 µM (CYP2C19; CYP2C19, 50 μM): 91%
0.9	0.8	99	88	110	92	1.2	1.0	98	116	106	106	0.9	1.1	116	102	81	90	1.0	0.7	CC(C)N1CC(=O)N(Cc2ccc(C(F)(F)F)cc2)C2(CN(c3cccnn3)C2)C1=O [Compound 13, 8-isopropyl-2-(pyridazin-3-yl)-5-(4-(trifluoromethyl)benzyl)-2,5,8-triazaspiro[3.5]nonane-6,9-dione]	(% Activity NADPH T0)/(% Activity NADPH T30) (CYP3A4; [3]): 1.0; (% Activity NADPH T0)/(% Activity NADPH T30) (CYP3A4; [4]): 0.9; activity at 30 min, 25 µM (CYP3A4; [1]): 88%; activity at 30 min, 50 µM (CYP3A4; [2]): 97%; activity at 30 min, 25 µM (CYP3A4; [3]): 77%; activity at 30 min, 50 µM (CYP3A4; [4]): 65%; activity at 0 min, 25 µM (CYP3A4; [1]): 87%; activity at 0 min, 50 µM (CYP3A4; [2]): 72%; activity at 0 min, 25 µM (CYP3A4; [3]): 74%; activity at 0 min, 50 µM (CYP3A4; [4]): 56%; (% Activity NADPH T0)/(% Activity NADPH T30) (CYP2C19; CYP2C19, 25 μM): 1.0; (% Activity NADPH T0)/(% Activity NADPH T30) (CYP2C19; CYP2C19, 50 μM): 0.9; activity at 30 min, 25 µM (CYP2C19; CYP2C19, 25 μM): 108%; activity at 0 min, 25 µM (CYP2C19; CYP2C19, 25 μM): 108%; activity at 30 min, 50 µM (CYP2C19; CYP2C19, 50 μM): 119%; activity at 0 min, 50 µM (CYP2C19; CYP2C19, 50 μM): 113%
